Values after ≈ are worked out from the molar mass of the structure shown. Where a name gives a salt, the structure may show the parent alone. Read-outs that look alike come from different tables or passages of the source.
What was measured:
MRSA N9 = experiment: MIC testing, clinical strain; format: cell-based; details: Staphylococcus aureus
Source text: (§1) Methicillin-resistant Staphylococcus aureus (MRSA) ATCC 43300, Staphylococcus aureus ATCC 29213, Escherichia coli ATCC 25922, Salmonella typhimurium ATCC 14028, Enterococcus faecalis ATCC 29212, and Enterococcus faecium ATCC 35667 were obtained from the China Institute of Veterinary Drug Control (Beijing, China). Five clinical strains of MRSA (N7, N9, N20, N30, and N54) were isolated from diseased pig tissues of South China Agricultural University and Foshan University Animal Hospital. All clinical strains were identified as MRSA by Gram stain, catalase reaction, coagulase test, staphylococcus API identification system test, MecA gene test, and methicillin MIC test.
(§2) The MIC of amphenmulin against MRSA, Escherichia coli, Salmonella typhimurium, Enterococcus faecalis, and Enterococcus faecium were determined using tiamulin as controls. MIC values were measured by the method of previous work. Staphylococcus aureus ATCC 29213 was used as the quality control bacteria, and the quality control range was referred to the Clinical and Laboratory Standards Institute (CLSI). The bacteria solution was diluted to ~10^6 CFU/mL with Mueller–Hinton (MH) broth for MRSA, Escherichia coli and Salmonella typhimurium while Trypticase Soy Broth for Enterococcus faecalis and Enterococcus faecium. Drugs were dissolved in an aqueous solution of N, N-dimethylformamide (DMF) at a concentration of 2560 µg/mL, and then diluted with broth to prepare working solution (1280 µg/mL). The drug susceptibility testing was performed in 96-well plate. A total of 20 µL of working solution was added into column 1 and well mixed as a 10-fold dilution, following which Serial 2-fold dilutions were prepared to provide concentration ranges of 128–0.0078 µg/mL. Blank broth (no cultures) and bacteria solution (drugs replaced by blank solvent) were set as drug-free controls. Each 96-well plate was cultured at 37 °C for 24 h. The MIC value is the lowest concentration of amphenmulin which inhibits the visible growth of bacteria. The experiment was repeated three times.

MRSA N54 = experiment: MIC testing, clinical strain; format: cell-based; details: Staphylococcus aureus
Source text: as §1, §2

MRSA N20 = experiment: MIC testing, clinical strain; format: cell-based; details: Staphylococcus aureus
Source text: as §1, §2

MRSA N7 = experiment: MIC testing, clinical strain; format: cell-based; details: Staphylococcus aureus
Source text: as §1, §2

MRSA N30 = experiment: MIC testing, clinical strain; format: cell-based; details: Staphylococcus aureus
Source text: as §1, §2

MRSA ATCC 43300 [1] = tested on: MRSA ATCC 43300; design: method as in PMID 28295316; details: 4× MIC, cited from earlier work
E. faecalis ATCC 29212 = experiment: MIC testing (broth dilution, 96-well plate); format: cell-based; details: Enterococcus faecalis, ATCC29212
Experimental: as §2

[2] = tested on: S. typhimurium ATCC 14028; experiment: MIC testing (broth dilution, 96-well plate); format: cell-based; details: Salmonella enterica
Experimental: as §2

E. coli ATCC 25922 = experiment: MIC testing (broth dilution, 96-well plate); format: cell-based; details: Escherichia coli, ATCC25922
Experimental: as §2

S. aureus ATCC 29213 = experiment: MIC testing (broth dilution, 96-well plate); format: cell-based; details: Staphylococcus aureus, ATCC29213
Experimental: as §2

E. faecium ATCC 35667 = experiment: MIC testing (broth dilution, 96-well plate); format: cell-based; details: Enterococcus faecium, ATCC35667
Experimental: as §2

MRSA ATCC 43300 [3] = experiment: MRSA wound infection model: wound size; format: in vivo, mice; details: after treatment for three days; 100 μL drug (3 mg/mL) on the wound
Experimental: (§3) Six weeks SPF-ICR female mice were used for this study. The Experimental model, inducted of inflammatory in mice by skin excision, was established referring to existing methods with some alterations. The mice were anesthetized with the intravenous injection of 1% sodium pentobarbital. After their hair on the back was shaved, the mice were anesthetized and the back skin was perforated with a biopsy perforator at a depth of fascia injury. The inoculum (50 μL), containing 10^9 CFU/mL of the indicated microorganism (MRSA ATCC 43300), was applied on the wound for three times at 30 min intervals. 100 μL drug (3 mg/mL) was administrated on the wound at 1 h after inoculation for three consecutive days. A total of 100 μL blank matrix was given to the infected control group and the non-infected group in the same way. The wound was wrapped with sterile gauze. During the treatment, all mice were kept individually and free to eat and drink.
The wounds were examined on day 1 and days 3 after treatment. The area of wound were measured according to previous reports with some modifications. In each group, six mice were taken out and anesthetized to take photos and measure the size of the wound as the results.

MRSA ATCC 43300 [4] = experiment: MRSA wound infection model: wound bacterial burden; format: in vivo, mice
Experimental: as §3
At the end of the examination, mice were anesthetized and killed. Tissue samples, reaching to the muscle membrane, were removed from the middle of the wound surface and homogenized in 0.9% saline. Serially diluted aliquots of homogenate were cultured on high-salt mannitol agar plate at 37 °C for 24 h. The log of the colony number was used for statistical analysis.

MIC (MRSA N9)	MIC (MRSA N54)	MIC (MRSA N20)	MIC (MRSA N7)	MIC (MRSA N30)	MIC (E. faecalis ATCC 29212)	MIC [2]	MIC (E. coli ATCC 25922)	MIC (S. aureus ATCC 29213)	MIC (E. faecium ATCC 35667)	SMILES	PAE (MRSA ATCC 43300 [1]; exposure for 1 h)	PAE (MRSA ATCC 43300 [1]; exposure for 2 h)	wound area (MRSA ATCC 43300 [3])	number of bacteria in wound tissue vs infected group (MRSA ATCC 43300 [4]; one day after treatment, p < 0.05)	number of bacteria in wound tissue (MRSA ATCC 43300 [4]; three days after treatment, 100 μL drug (3 mg/mL) on the wound)
0.5 mg/L (≈ 1.01 µM)	0.5 mg/L (≈ 1.01 µM)	32 mg/L (≈ 64.8 µM)	16 mg/L (≈ 32.4 µM)	32 mg/L (≈ 64.8 µM)	> 128 mg/L	> 128 mg/L	> 128 mg/L	0.5 mg/L (≈ 1.01 µM)	2 mg/L (≈ 4.05 µM)	C=C[C@]1(C)C[C@@H](OC(=O)CSCCN(CC)CC)[C@]2(C)[C@H](C)CC[C@]3(CCC(=O)[C@H]32)[C@@H](C)[C@@H]1O [Tiamulin, reference compound]	1.90 h	2.04 h	–	–	–
–	–	–	–	–	–	–	–	–	–	CN[C@H](CC(C)C)C(=O)N[C@H]1C(=O)N[C@@H](CC(N)=O)C(=O)N[C@H]2C(=O)N[C@H]3C(=O)N[C@H](C(=O)N[C@H](C(=O)O)c4cc(O)cc(O)c4-c4cc3ccc4O)[C@H](O)c3ccc(c(Cl)c3)Oc3cc2cc(c3O[C@@H]2O[C@H](CO)[C@@H](O)[C@H](O)[C@H]2O[C@H]2C[C@](C)(N)[C@H](O)[C@H](C)O2)Oc2ccc(cc2Cl)[C@H]1O [vancomycin, vancomycin hydrochloride, reference compound]	–	–	0.44 ± 0.07 cm^2	significant decrease	4.25 ± 0.57 log10 CFU/mL

From publication PMC7071076, “Antibacterial Activity and Pharmacokinetic Profile of a Promising Antibacterial Agent: 22-(2-Amino-phenylsulfanyl)-22-Deoxypleuromutilin” (Molecules, 2020)
